These results are taken from patent US10350334B2, “Catheter locking solution having antimicrobial and anticoagulation properties” (Becton, Dickinson and Company, priority 2009, dated 2019).

The test system of assay [1] is sheep plasma. The assay can be described thus: Sheep's Plasma Clotting Assay (USP coagulation test). In kind it is biochemical. As for the experimental part: In order to understand what the working concentration range could be for the anesthetics tested, a Sheep's Plasma Clotting Assay was performed. This test is based on the United States Pharmacopeia (USP) standard test for coagulation and is often used to understand heparin potency. […] Sheep plasma was thawed in a water bath set to 37° C. To facilitate thawing, the plasma in the bottle was inverted every 15 minutes. The plasma was thawed after about 45-60 minutes. The thawed sheep plasma was filtered through glass wool or filtered into a clean glass beaker or flask, to remove particulate matter and to activate it. About 70-80 mL of filtered sheep plasma was collected. Next, a set of test tubes were prepared (VWR Disposable 13×100-mm) in a 6×12 rack. Ten test tubes were needed for each test solution including ten test tubes for the heparin standard. […] For each test solution, every (10) test tube received different volumes of 0.9% NaCl. […] Next, the local anesthetics were added, namely, tetracaine at 30 mg/mL, dibucaine at 30 mg/mL, and bupivacaine at 38 mg/mL. Each of the ten test tubes received different volumes of test solutions, starting with 280 μL and increasing in volume by 20 μL until reaching a volume of 460 μL at the tenth tube. The total volume of saline and test solutions in each of the tubes was 800 μL. A standard solution, namely, USP heparin sodium standard, was also prepared in the same way, with the starting concentration of heparin being 5.6 U/mL. Next, 1 mL of sheep plasma for heparin assay (Bio-Supplies, Inc, P-SPR-1500) was pipetted into each tube, and the rack was gently shaken to ensure mixing. Two hundred μL of a 1% CaCl2 solution was placed into each tube. The total volume for each tube is 2 mL. Each tube was capped with a VWR Plug-type cap, and contents of each tube were inverted six times to ensure that the entire inner wall of each tube was wet. Tubes were incubated for 1 hour at room temperature. After the 1 hour time period, the extent of clotting in each tube was determined by gently shaking each individual test tube (tapping the end gently is acceptable) and then tilting the tube to observe a clot both vertically and horizontally. The degree to which each tube developed a clot was recorded using the following criteria (per the USP Standard) for the visual inspection of the tubes: • 0% Clotting=No apparent clot formed. • 25% Clotting=Small observable clot with mostly liquid. Clot is very mobile. • 50% Clotting=Plasma is completely clotted but mobile. • 75% Clotting=Clot is not mobile but liquid is still present. • 100% Clotting=Clot is not mobile and no liquid is present.
Because of the testing protocol, starting concentrations of anesthetics were diluted from the original formulation. Calculations can be made to compare the efficacy of these anesthetics to the standard anticoagulant heparin by calculating the point at which both standard and test samples yield 50% clotting. Using this calculation, the anesthetic concentration can be referenced back to a measure of U/mL of heparin equivalence.

For assay [2], the system named is Staphylococcus epidermidis biofilm. Put plainly: Catheter biofilm eradication (catheter segment test) on silicone tubing. In kind it is cell-based. The conditions noted are these: 1 hour, silicone catheter segments. As for the experimental part: (§1) To understand the antimicrobial effects of the local anesthetics used in the lock solution of the present invention in a clinical setting, a biofilm was grown on silicone catheter-like tubing and treated with various concentrations of local anesthetics. First, a sterile silicone catheter-like tube containing 10 mL TSB media was inoculated with a BD BBL™ Qualiswab™, and placed in an incubator at 37° C. overnight. The next day, a sterile flask containing 25 mL TSB (for bacterial species) or 25 mL SDB (for fungal species) was inoculated with the cultured cells. The morning of the experiment, a new flask containing 25 mL of media was inoculated with the new overnight suspension. These steps were taken to ensure that cells were in the log phase, which for S. epidermidis was ˜3-4 hours, and for C. albicans was around ˜18 hrs. […] Microbial concentrations were adjusted to 1×10^5 CFU/mL by dilution with appropriate media. Silicone catheter-like tubing was terminally sterilized by autoclaving the tube for 45 minutes at 121° C. The sterilized catheter-like tubing was inoculated with 1×10^5 CFU/mL for 2 hours under continuous flow. Continuous flow was created by using a peristaltic pump, in which bacterial suspension was flowed through the catheter segments into a waste reservoir. After the 2 hour time period, the same set up was used to pump TSB media through the tubing for an additional 24 hours to allow biofilm to form on the walls of the catheter lumen. After 24 hours, sterilized saline was pumped through the lumen for 30 minutes to rinse the catheters. Catheters were then cut into 1 inch segments using sterile techniques. Catheter segments were dropped into sterile tubes containing 4 mL of antimicrobials, and incubated in a 37° C. incubator shaker for 1 hour. Segments were removed from treatment tubes and placed into new tubes filled with 6 mL of sterile saline. Each segment was swabbed with a sterile swab and both the tube and the swab were sonicated (Ultrasonic cleaner VWR Model 250T) for 3 minutes. Tubes and swabs were then vortexed (Fisher Scientific Vortex Mixer #02-215-365) for 30 seconds each. One hundred microliters of suspension was plated onto TSB agar plates (SDB for fungal species). The remaining 5.9 mL of suspension was passed through 0.4 μm filters and filters were placed on TSB plates. This step was taken to ensure that all possible bacteria were being recovered. All TSB plates were then incubated at 37° C. in a static incubator for 24-48 hours, at which time colony forming units were counted.

Assay [3] concerns Candida albicans biofilm. Described as above. It is filed as cell-based. The conditions noted are these: 38 mg/mL, 1 hour, silicone catheter segments. As to the method: as §1
Assay [4] deals with C. albicans. The assay can be described thus: Minimum Biofilm Inhibitory Concentration (MBIC) test. It is filed as cell-based, Candida albicans. As to conditions: for MBIC: adhered cells, 24 hours incubation; for MBIC Assuming 2 mL lock volume: amount in 2 mL lock volume. As to the method:
(§2) To further evaluate the efficacy of local anesthetics in antimicrobial lock solutions of the present invention, the minimum concentration at which these drugs can inhibit biofilm growth was tested. The local anesthetics identified in Table 4 were tested against three different species of bacteria identified in Table 3 to assess the antimicrobial efficacy against adhered microbes. It is known that adhered microbes, or biofilms, can be more resistant to antimicrobials than planktonic cells.
(§3) Experiments were conducted against adhered microbes as follows: first, a test tube containing 10 mL of sterile TSB was inocubated with BD BBL™ Qualiswab™, with the strain of interest. The tube was placed in an incubator at 37° C. overnight. The next day, a flask containing 25 mL of sterile TSB (or Sabouraud Dextrose Broth (SDB) for fungal species) was inoculated with 1 mL of bacterial suspension. The flask was placed in an incubator at 37° C. and shaken at 150 RPM. The next day a new flask containing 25 mL of TSB (or SDB) media was inoculated with 1 mL from the previous culture. The bacterial or fungal species were allowed to grow to log phase.
(§4) After the microbes entered the log phase, their concentration was checked to ensure that they had reached a minimum of 1×10^8 CFU/mL per a 0.5 MacFarland standard. Microbes were diluted to a concentration of 1×10^5 CFU/mL using a nephelometer and 200 μL of the microbial suspensions were plated on each of the wells of a 96 well plate. The plate was incubated in a standard incubator at 37° C. for 2 hours to allow for microbial cell adhesion. Next, dilutions of the desired concentrations of antimicrobials were prepared. In a separate, blank plate, 1:2 serial dilutions were prepared with the highest concentration of the antimicrobial to the left of the plate, decreasing in concentration towards the right of the plate. For example, 170 μL of the highest concentration of an antimicrobial was dispensed in column 1 (left of plate). Each of the rest of the columns received 170 μL of saline. Column 2 received 170 μL of antimicrobial, making for a 1:2 dilution (or 50% of original concentration). Contents of Column 2 were then transferred to 3, then from 3 to 4, and so forth. Each well was supplemented with 20% media (TSB for S. epidermidis and P. aeruginosa and SDB for C. albicans), thereby ensuring the viability of the cells over the test time period (24 hours). Positive control wells had 20% media in saline. The bacterial plate was removed from the incubator, and bacterial suspension discarded (adhered cells remain on plate). The antimicrobial formulations identified in Table 4 were then added to the bacterial plate and incubated in a standard incubator at 37° C. for 24 hours. After this time period, solutions in the plate were discarded and plates were rinsed with 200 μL of saline. The cells were then fixed with 200 μL of 95% ethanol for 30 minutes, and allowed to air dry for 10 minutes. Next, the cells were stained for 20 minutes with 250 μL of a filtered solution of 2% crystal violet dye. The plates were then rinsed three times with water, and the 2% crystal violet dye was solubilized with 300 μL of 95% ethanol. The plates were allowed to stand for 10 minutes to complete solubilization and then the plates were read on a spectrophotometer at 570 nm absorbance, wherein high absorbance readings of >0.600 indicated microbial growth. Columns in the plate that had no growth were recorded as the […] (MBIC). FIG. 2 illustrates the MBIC corresponding to the specific local anesthetics.

Assay [5] relates to P. aeruginosa. Described as above. In kind it is cell-based, Pseudomonas aeruginosa. The conditions noted are these: for MBIC: adhered cells, 24 hours incubation; for MBIC Assuming 2 mL lock volume: amount in 2 mL lock volume. As for the experimental part:
as §2, §3, §4

For assay [6], the system named is S. epidermidis. The assay is described as above. It is filed as cell-based, Staphylococcus epidermidis. The conditions noted are these: for MBIC: adhered cells, 24 hours incubation; for MBIC Assuming 2 mL lock volume: amount in 2 mL lock volume. As to the method: as §2, §3, §4
The nature of assay [7]: Internal testing of anticoagulant equivalence to heparin. As to conditions: per internal testing.
Assay [8] has as its system Staphylococcus epidermidis. Put plainly: Planktonic cell tests. In kind it is cell-based. As to conditions: heparin solution. As for the experimental part:
In the planktonic cell tests, bupivacine was tested against non-adhering coagulase negative S. epidermidis, which is the bacterial species most prominent in the pathogenesis of CR-BSI. The planktonic cell experiments were performed by the following procedures. First, bacterial suspensions were prepared. Particularly, using BD BBL™ Qualiswab™, S. epidermidis was plated on a Tryptic Soy Broth (TSB) Petri Dish and grown overnight at 37° C. Using a sterile loop, a colony of S. epidermidis was picked up from the TSB Petri Dish and placed into a sterile flask containing 25 mL of sterile TSB media. The flask was then placed in a 37° C. shaking incubator and was shaken at 150 RPM overnight. The next day, 15 mL of the prepared bacterial suspension was placed into an autoclaved centrifuge tube and centrifuged at 10,000 RPM for 10 minutes using a Sorval Centrifuge. The bacteria from the bacterial suspension were rinsed in 0.9% saline by discarding the liquid media (after centrifugation step) and by resuspending the microbial pellet in 20 mL of sterile 0.9% saline. The bacteria were centrifuged and rinsed twice more, for a total of three saline rinses. […]
Bulk concentrations of the bupivacaine and/or vancomyacin (as noted in FIG. 1) were prepared in separate beakers and were filter sterilized. […] Samples were also assessed at time 0, in which there was no exposure to antimicrobials. […]

Several values for one entry are separate records, joined by “and”; a condition that tells them apart may be missing. Equal values may be shown once.

As for `CCCCOc1cc(C(=O)NCCN(CC)CC)c2ccccc2n1.Cl` [Dibucaine, Dibucaine HCl], the “Equivalence to Heparin” value in assay [1] (calculated from volumes giving 50% clotting versus heparin standard, per replicate) is reported as 6.23 U/mL. The 50% clotting range in assay [1] (final concentration in tube, 1 hour at room temperature, per replicate) was in the range of 5.1 to 5.4 mg/mL. Further, the “Log reduction of established biofilm” value in assay [2] (38 mg/mL) is about 0.5 Log. Also, the “eradication of established biofilm” value in assay [3] is listed as “completely eradicated”. The MBIC was 0.59 mg/mL in assay [4]; 4.794 mg/mL and 4.75 mg/mL in assay [5] (HCl); 0.59 mg/mL in assay [6]. Moreover, the entries for the “MBIC Assuming 2 mL lock volume” value in assay [4], in assay [5] and in assay [6] were 1.18 mg, 9.5 mg and 1.18 mg, respectively.

As to `Cc1cccc(C)c1NC(=O)C1CCCCN1C.Cl` (stereo not drawn) [Mepivacaine, Mepivacaine HCl], the “Log reduction of established biofilm” value in assay [2] (28 mg/mL) is given as 1.6 Log. For the same compound, the MBIC entry in assay [4] is given as “No inhibition”; in assay [5], 28.2 mg/mL; in assay [6], 28.2 mg/mL. The “MBIC Assuming 2 mL lock volume” value in assay [4] is “No inhibition”; in assay [5], 56.4 mg; in assay [6] it was 56.4 mg.

Regarding `CCCNC(C)C(=O)Nc1ccccc1C.Cl` (stereo not drawn) [Prilocaine, Prilocaine HCl], the “antimicrobial effect on established biofilm” value in assay [2] is given as “minimal antimicrobial effect”.

For the compound `O=C([O-])CC(O)(CC(=O)[O-])C(=O)[O-].[Na+].[Na+].[Na+]` [sodium citrate], in assay [7], the “anticoagulant equivalence to heparin” value was “about 20 units/mL of heparin”.

Take heparin: the “volume at 50% coagulation” value in assay [1] (Rep 1) was 370 µL. The “antimicrobial effect against planktonic Staphylococcus epidermidis” value in assay [8] was “virtually no antimicrobial effect”.
